From US6531308B2, “Ketoreductase gene and protein from yeast” (Eli Lilly and Company, priority 1997, dated 2003)

System: wild-type ketoreductase from Z. rouxii (SEQ ID NO: 2)
Experiment: Reductase activity of Z. rouxii ketoreductase, substrate specificity (NADPH oxidation, absorbance at 340 nm)
Format: biochemical
Method: Reductase activity was measured using a suitable substrate and a partially purified or substantially purified ketoreductase from Z. rouxii. Activity was measured as a function of the absorbance change at 340 nm, resulting from the oxidation of NADPH. […] Reaction mixtures were first equilibrated at 26° C. for 10 min in the absence of NADPH, and then initiated by addition of NADPH. […] The kinetic parameters for 3,4-methylenedioxyphenyl acetone were determined at an NADPH concentration of 112 μM and a 3,4-methylenedioxyphenyl acetone concentration that varied from 1.7 mM -7.2 mM. The kinetic parameters for NADPH were determined by maintaining the 3,4-methylenedioxyphenyl acetone concentration at 3 mM and the NADPH concentration was varied from 20.5 μM-236.0 μM. An extinction coefficient of 6220 M^−1 cm^−1 for NADPH absorbance at 340 nm was used to calculate the specific activity of the enzyme. For assays using isatin, the change in absorbance with time was measured at 414 nm using an extinction coefficient of 849 M^−1 cm^−1 to calculate activity. One Unit of activity corresponds to 1 μmol of NADPH consumed per minute. For assays carried out at differing pH values, 10 mM Bis-Tris and 10 mM Tris were adjusted to the appropriate pH with HCl. Kinetic parameters were determined by non-linear regression using the JMP® statistics and graphics program.

Question: For `CC(=O)CCc1ccc2c(c1)OCO2`, which “% Relative Activity” value (substrate concentration 5 mM) is on record?
Answer: 18%

Question: Which “% Relative Activity” value (substrate concentration 5 mM) does the source give for `CCOC(=O)CC(=O)CCl` here?
Answer: 42%

Question: With `CC(C)(CO)C(=O)C(=O)O` as the compound, how does the “% Relative Activity” value (substrate concentration 4 mM) read?
Answer: 37%

Question: `CC(=O)c1ccccc1` was tested. Which “% Relative Activity” value (substrate concentration 0.6 mM) did it give?
Answer: 4%

Question: `CC(=O)CCc1ccccc1` was tested. Which “% Relative Activity” value (substrate concentration 0.6 mM) did it give?
Answer: 0%

Question: With `CC1(C)COC(=O)C1=O` as the compound, how does the “% Relative Activity” value (substrate concentration 3 mM) read?
Answer: 194%

Question: `O=C1Nc2ccccc2C1=O` was tested. Which “% Relative Activity” value (substrate concentration 0.8 mM) did it give?
Answer: 86%

Question: Which “% Relative Activity” value (substrate concentration 0.6 mM) does the source give for `CC(=O)CN1C(=O)c2ccccc2C1=O` here?
Answer: 17%

Question: How did the “% Relative Activity” value (substrate concentration 5 mM) turn out when `CC1(C)[C@H]2CC[C@]1(C)C(=O)C2=O` was run?
Answer: 100%

Question: `CC1(C)[C@@H]2CC[C@@]1(C)C(=O)C2=O` was tested. Which “% Relative Activity” value (substrate concentration 5 mM) did it give?
Answer: 32%

Question: With `CC(=O)Cc1ccc2c(c1)OCO2` [3,4-methylenedioxyphenyl acetone] as the compound, how does the “% Relative Activity” value (substrate concentration 3 mM) read?
Answer: 100%
